Key:
GSK3α = GSK3α (Homo sapiens (Human), UniProt P49840); assay: GSK 3α enzyme inhibition (FRET, Method 2); assay type: biochemical
Procedure: (§1) The enzyme inhibitory activities of compounds disclosed herein are determined by FRET using synthetic peptides labelled with both donor and acceptor fluorophores (Z-LYTE, Invitrogen Ltd., Paisley, UK).
The inhibitory activities of compounds of the invention against the GSK 3α enzyme isoform (Invitrogen), are evaluated by determining the level of activation/phosphorylation of the target peptide. The GSK3-α protein (500 ng/mL, 2.5 μL) is mixed with the test compound (2.5 μL at either 4 μg/mL, 0.4 μg/mL, 0.04 μg/mL, or 0.004 μg/mL) for 2 hr at RT. The FRET peptide (8 μM, 2.5 μL), which is a phosphorylation target for GSK3α, and ATP (40 μM, 2.5 μL) are then added to the enzyme/compound mixture and the resulting mixture incubated for 1 hr. Development reagent (protease, 5 μL) is added for 1 hr prior to detection in a fluorescence microplate reader (Varioskan® Flash, ThermoFisher Scientific).
(§2) In all cases, the site-specific protease cleaves non-phosphorylated peptide only and eliminates the FRET signal. Phosphorylation levels of each reaction are calculated using the ratio of coumarin emission (donor) over fluorescein emission (acceptor), for which high ratios indicate high phosphorylation and low ratios indicate low phosphorylation levels.

PBMCs = assay: (b) LPS-induced TNFα/IL-8 release in PBMC cells; assay type: cell-based; conditions: Homo sapiens, read-out: IC50 for Inhibition of Cytokine Release, IL-8
Procedure: Peripheral blood mononuclear cells (PBMCs) from healthy subjects are separated from whole blood using a density gradient (Lymphoprep, Axis-Shield Healthcare). The PBMCs are seeded in 96 well plates and treated with compounds at the desired concentration for 2 hours before addition of 1 ng/ml LPS (Escherichia Coli 0111:B4 from Sigma Aldrich) for 24 hours under normal tissue culture conditions (37° C., 5% CO2). The supernatant is harvested for determination of IL-8 and TNFα concentrations by sandwich ELISA (Duo-set, R&D systems) and read on the fluorescence microplate reader (Varioskan® Flash, ThermoFisher Scientific).

HT29 cells = assay: (d) IL-1β-induced IL-8 release in HT29 cells; assay type: cell-based; conditions: Homo sapiens, HT-29, read-out: IC50 for Inhibition of Cytokine Release, IL-8
Procedure: HT29 cells, a human colon adenocarcinoma cell line, are plated in a 96 well plate (24 hrs) and pre-treated with compounds at the desired concentration for 2 hours before addition of 5 ng/ml of IL-1β (Abeam) for 24 hours. Supernatants are harvested for IL-8 quantification by Sandwich ELISA (Duo-set, R&D System). The IC50 is determined from the dose response curve.

c-Src = c-Src (Homo sapiens (Human), UniProt P12931); assay: c-Src enzyme inhibition (FRET); assay type: biochemical
Sequence of c-Src (P12931 whole entry, looked up): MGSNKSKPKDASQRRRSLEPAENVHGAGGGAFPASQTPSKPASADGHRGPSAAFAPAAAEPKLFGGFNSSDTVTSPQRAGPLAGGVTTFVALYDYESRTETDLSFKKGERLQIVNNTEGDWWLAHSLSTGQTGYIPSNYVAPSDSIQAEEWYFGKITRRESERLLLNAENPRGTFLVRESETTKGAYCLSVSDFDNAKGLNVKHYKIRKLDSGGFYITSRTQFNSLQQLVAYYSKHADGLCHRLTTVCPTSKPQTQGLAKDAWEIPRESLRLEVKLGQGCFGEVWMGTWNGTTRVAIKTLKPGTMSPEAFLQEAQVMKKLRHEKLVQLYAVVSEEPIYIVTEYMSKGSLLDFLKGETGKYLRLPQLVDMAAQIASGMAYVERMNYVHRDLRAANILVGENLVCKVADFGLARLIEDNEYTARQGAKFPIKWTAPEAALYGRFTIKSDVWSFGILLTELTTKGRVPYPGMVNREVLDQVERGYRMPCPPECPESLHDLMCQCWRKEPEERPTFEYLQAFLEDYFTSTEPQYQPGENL
Procedure: as §1
(§3) The inhibitory activities of compounds of the invention against c-Src and Syk enzymes (Invitrogen), are evaluated in a similar fashion to that described hereinabove. The relevant enzyme (3000 ng/mL or 2000 ng/mL respectively, 2.5 μL) is incubated with the test compound (either 4 μg/mL, 0.4 μg/mL, 0.04 μg/mL, or 0.004 μg/mL, 2.5 μL each) for 2 hr at RT. The FRET peptides (8 μM. 2.5 μL), and appropriate ATP solutions (2.5 μL, 800 μM for c-Src, and 60 μM ATP for Syk) are then added to the enzymes/compound mixtures and incubated for 1 hr. Development reagent (protease, 5 μL) is added for 1 hr prior to detection in a fluorescence microplate reader (Varioskan® Flash, ThermoFisher Scientific).
as §2

Syk = Syk (Homo sapiens (Human), UniProt P43405); assay: Syk enzyme inhibition (FRET); assay type: biochemical
Procedure: as §1, §3, §2

p38 MAPKα = p38 MAPKα (Homo sapiens (Human), UniProt Q16539); assay: p38 MAPKα enzyme inhibition (FRET, Method 2); assay type: biochemical
Sequence of p38 MAPKα (Q16539 whole entry): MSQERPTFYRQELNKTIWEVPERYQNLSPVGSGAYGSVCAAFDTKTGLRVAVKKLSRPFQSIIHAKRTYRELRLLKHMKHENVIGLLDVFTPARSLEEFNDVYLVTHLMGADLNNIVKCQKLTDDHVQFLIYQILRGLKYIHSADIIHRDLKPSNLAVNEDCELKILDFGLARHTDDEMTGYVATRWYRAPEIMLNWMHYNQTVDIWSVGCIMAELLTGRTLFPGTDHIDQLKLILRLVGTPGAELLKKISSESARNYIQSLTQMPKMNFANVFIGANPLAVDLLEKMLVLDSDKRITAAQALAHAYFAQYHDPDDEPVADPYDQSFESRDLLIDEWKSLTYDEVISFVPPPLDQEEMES
Procedure: as §1
The inhibitory activities of test compounds against the p38 MAPKα isoform (MAPK14: Invitrogen), are evaluated indirectly by determining the level of activation/phosphorylation of the down-stream molecule, MAPKAP-K2. The p38 MAPKα protein (80 ng/mL, 2.5 μL) is mixed with the test compound (2.5 μL of either 4 μg/mL, 0.4 μg/mL, 0.04 μg/mL or 0.004 μg/mL) for 2 hr at RT. […] The mixture is incubated for 1 hr at RT. Development reagent (protease, 5 μL) is added for 1 hr prior to detection in a fluorescence microplate reader (Varioskan® Flash, ThermoFisher Scientific).
as §2

kinases = assay: KinomeScan selectivity scores / number of hits; assay type: binding
Procedure: These assays may be conducted by DiscoverX (formerly Ambit; San Diego, Calif.). The percentage inhibition produced by incubation with a test compound may be calculated relative to the non-inhibited control.

β-catenin = assay: (m) Accumulation of β catenin in d-U937 cells; assay type: cell-based, human; conditions: Reference Compound at 1 μg/mL defined as 100%
Procedure: U937 cells, a human monocytic cell line, are differentiated into macrophage-type cells by incubation with PMA; (100 ng/mL) for between 48 to 72 hr. The cells are then incubated with either final concentrations of test compound or vehicle for 18 hr. The induction of β-catenin by the test compounds is stopped by replacing the media with 4% formaldehyde solution. Endogenous peroxide activity is neutralised by incubating with quenching buffer (100 μL, 0.1% sodium azide, 1% H2O2 in PBS with 0.05% Tween-20) for 20 min. The cells are washed with washing buffer (200 μL; PBS containing 0.05% Tween-20) and incubated with blocking solution (200 μL; 5% milk in PBS) for 1 hr, re-washed with washing buffer (200 μL) and then incubated overnight with anti-β-catenin antibody solution (50 μL) in 1% BSA/PBS (BD, Oxford, UK).
After washing with washing buffer (3×200 μL; PBS containing 0.05% Tween-20), cells are incubated with an HRP-conjugated secondary antibody solution (100 μL) in 1% BSA/PBS (Dako, Cambridge, UK) and the resultant signal is determined colourimetrically (OD: 450 nm with a reference wavelength of 655 nm) using TMB substrate (50 μL; R&D Systems, Abingdon, UK). This reaction is stopped by addition of 1N H2SO4 solution (50 μL). Cells are then washed with washing buffer and 2% crystal violet solution (50 μL) is applied for 30 min. After washing with washing buffer (3×200 μL), 1% SDS (100 μL) is added to each well and the plates are shaken lightly for 1 hr prior to measuring the absorbance at 595 nm (Varioskan® Flash, Thermo-Fisher Scientific).
The measured OD450-655 readings are corrected for cell number by dividing the OD450-655 by the OD595 readings.

Sequence of GSK3α (P49840 whole entry): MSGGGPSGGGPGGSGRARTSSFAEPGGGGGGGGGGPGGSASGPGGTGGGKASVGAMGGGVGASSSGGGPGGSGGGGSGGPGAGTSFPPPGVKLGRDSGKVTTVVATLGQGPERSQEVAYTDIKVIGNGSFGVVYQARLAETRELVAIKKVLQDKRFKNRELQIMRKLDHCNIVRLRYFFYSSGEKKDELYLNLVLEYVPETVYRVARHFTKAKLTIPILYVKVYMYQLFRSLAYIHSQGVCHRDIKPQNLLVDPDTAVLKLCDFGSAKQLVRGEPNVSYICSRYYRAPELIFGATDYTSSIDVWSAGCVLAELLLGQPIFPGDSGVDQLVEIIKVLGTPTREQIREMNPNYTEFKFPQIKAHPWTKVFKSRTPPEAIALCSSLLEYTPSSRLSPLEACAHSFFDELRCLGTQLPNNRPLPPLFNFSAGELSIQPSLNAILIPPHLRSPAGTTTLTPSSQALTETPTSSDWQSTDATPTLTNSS

Structure (SMILES)	IC50 (GSK3α) [nM]	IC50 (HT29 cells) [nM]	IC50 (c-Src) [nM]	IC50 (Syk) [nM]	IC50 (p38 MAPKα) [nM]	IC50 (PBMCs) [nM]	KinomeScan S(1) number of hits (kinases; 50 nM)	KinomeScan S(10) number of hits (kinases; 50 nM)	KinomeScan S(35) number of hits (kinases; 50 nM)	KinomeScan S(1) number of hits (kinases; 500 nM)	KinomeScan S(10) number of hits (kinases; 500 nM)	KinomeScan S(35) number of hits (kinases; 500 nM)	% β-catenin induction (β-catenin; 1 μg/mL) [%]	% β-catenin induction (β-catenin; 5 μg/mL) [%]	% β-catenin induction (β-catenin; 10 μg/mL) [%]
C#Cc1cc(Nc2nccc(Oc3ccc(NC(=O)Nc4cc(C(C)(C)C)nn4-c4ccc(C)cc4)c4c3CCCC4)n2)cc(C(=O)NCCOCCOCCOC)c1 [Example 12, 3-((4-((4-(3-(3-(tert-Butyl)-1-(p-tolyl)-1H-pyrazol-5-yl)ureido)-5,6,7,8-tetrahydronaphthalen-1-yl)oxy)pyrimidin-2-yl)amino)-5-ethynyl-N-(2-(2-(2-methoxyethoxy)-ethoxy)ethyl)benzamide]	12500	10.9	–	–	–	11.8	–	–	–	–	–	–	–	–	–
C#Cc1cc(Nc2nccc(Oc3ccc(NC(=O)Nc4cc(C(C)(C)C)nn4-c4ccc(OC)cc4C)c4ccccc34)n2)cc(C(=O)NCCOCCOCCOC)c1 [Example 17, 3-((4-((4-(3-(3-(tert-Butyl)-1-(4-methoxy-2-methylphenyl)-1H-pyrazol-5-yl)ureido)-naphthalen-1-yl)oxy)pyrimidin-2-yl)amino)-5-ethynyl-N-(2-(2-(2-methoxyethoxy)-ethoxy)ethyl)benzamide]	12100	–	–	–	–	5	–	–	–	–	–	–	–	–	–
C#Cc1cc(Nc2cc(Oc3ccc(NC(=O)Nc4cc(C(C)(C)C)nn4-c4ccc(N(C)C)cc4)c4ccccc34)ccn2)cc(C(=O)NCCOCCOCCOC)c1 [Example 11, 3-((4-((4-(3-(3-(tert-Butyl)-1-(4-(dimethylamino)phenyl)-1H-pyrazol-5-yl)ureido)-naphthalen-1-yl)oxy)pyridin-2-yl)amino)-5-ethynyl-N-(2-(2-(2-methoxyethoxy)ethoxy)-ethyl)benzamide]	12100	6.2	> 1210	> 1210	766	4.3	–	–	–	–	–	–	–	–	–
COCC(=O)Nc1cc(Oc2ccc(NC(=O)Nc3cc(C(C)(C)C)nn3-c3ccc(C)cc3)c3ccccc23)ccn1 [Reference Compound, N-(4-(4-(3-(3-tert-butyl-1-p-tolyl-1H-pyrazol-5-yl)ureido)naphthalen-1-yloxy)pyridin-2-yl)-2-methoxyacetamide, reference compound]	–	–	–	–	–	–	7	32	67	45	105	143	100	–	–
COCCOCCOCCNC(=O)c1cc(Nc2cc(Oc3ccc(NC(=O)Nc4cc(C(C)(C)C)nn4-c4cccc(CP(C)(C)=O)c4)c4ccccc34)ccn2)cc(OC)c1 [Example 15, 3-((4-((4-(3-(3-(tert-Butyl)-1-(3-((dimethylphosphoryl)methyl)phenyl)-1H-pyrazol-5-yl)-ureido)naphthalen-1-yl)oxy)pyridin-2-yl)amino)-5-methoxy-N-(2-(2-(2-methoxyethoxy)-ethoxy)ethyl)benzamide]	3200	2	18	57	34	1.2	–	–	–	–	–	–	4	11	27

Second part, led by results:

IC50 (GSK3α) [nM]	IC50 (HT29 cells) [nM]	IC50 (c-Src) [nM]	IC50 (Syk) [nM]	IC50 (p38 MAPKα) [nM]	Structure (SMILES)	IC50 (PBMCs) [nM]	KinomeScan S(1) number of hits (kinases; 50 nM)	KinomeScan S(10) number of hits (kinases; 50 nM)	KinomeScan S(35) number of hits (kinases; 50 nM)	KinomeScan S(1) number of hits (kinases; 500 nM)	KinomeScan S(10) number of hits (kinases; 500 nM)	KinomeScan S(35) number of hits (kinases; 500 nM)	% β-catenin induction (β-catenin; 1 μg/mL) [%]	% β-catenin induction (β-catenin; 5 μg/mL) [%]	% β-catenin induction (β-catenin; 10 μg/mL) [%]
646	–	15	27	–	COCCOCCOCCNC(=O)c1cc(Nc2nccc(Oc3ccc(NC(=O)Nc4cc(C(C)(C)C)nn4-c4ccc(N(C)C)cc4)c4ccccc34)n2)cc(OC)c1 [Example 16, 3-((4-((4-(3-(3-(tert-Butyl)-1-(4-(dimethylamino)phenyl)-1H-pyrazol-5-yl)ureido)-naphthalen-1-yl)oxy)pyrimidin-2-yl)amino)-5-methoxy-N-(2-(2-(2-methoxyethoxy)-ethoxy)ethyl)benzamide]	2.7	–	–	–	–	–	–	–	–	–
2130	3.6	21	123	370	C#Cc1cc(Nc2nccc(Oc3ccc(NC(=O)Nc4cc(C(C)(C)C)nn4-c4ccc(OC)cc4OC)c4ccccc34)n2)cc(C(=O)NCCOCCOCCOC)c1 [Example 13, 3-((4-((4-(3-(3-(tert-Butyl)-1-(2,4-dimethoxyphenyl)-1H-pyrazol-5-yl)ureido)naphthalen-1-yl)oxy)pyrimidin-2-yl)amino)-5-ethynyl-N-(2-(2-(2-methoxyethoxy)ethoxy)ethyl)-benzamide]	4.6	–	–	–	–	–	–	−5	−2	−4
402	1.5	4	20	88	C#Cc1cc(Nc2nccc(Oc3ccc(NC(=O)Nc4cc(C(C)(C)C)nn4-c4cccc(CP(C)(C)=O)c4)c4ccccc34)n2)cc(C(=O)NCCOCCOCCOC)c1 [Example 14, 3-((4-((4-(3-(3-(tert-Butyl)-1-(3-((dimethylphosphoryl)methyl)phenyl)-1H-pyrazol-5-yl)-ureido)naphthalen-1-yl)oxy)pyrimidin-2-yl)amino)-5-ethynyl-N-(2-(2-(2-methoxyethoxy)-ethoxy)ethyl)benzamide]	1.5	–	–	–	–	–	–	–	–	–
